Entries after “also recorded” stand apart in the source; their conditions may differ.
How the values were obtained:
[1] = in vivo; cited from earlier work
GAPDH = GAPDH housekeeping control transcript (RTPCR); format: cell-based, murine
Procedure: Reverse transcriptase-PCR (RTPCR): Total RNA was prepared and isolated by the Tri-Reagent method according to the manufacturer's protocol (Sigma, St. Louis Mo., USA). Total RNA (1 μg) was converted into cDNA using Reverse-iT first strand synthesis kit (Abgene, UK). Amplification of MnSOD and UCP2 sequences was performed by incubating 10 ng equivalents of DNA with the following oligonucleotide primers:
The sequence of glyceraldehyde-3-phosphate dehydrogenase (GAPDH) was amplified as a control using the following primers: Left (sense) 5′-[…]-3′(SEQ ID NO: 9) corresponding to nucleotides 364 to 382 of mouse mRNA (GenBank Accession No. XM 195823.21).
Right (antisense) 5′[…]-3′ (SEQ ID NO: 10) corresponding to nucleotides 683 to 703 of mouse mRNA (GenBank Accession No. XM 195823.21). The expected PCR product was 339 bp. Actual PCR product was approximately 340 bp, measured on 1.25% agarose gel in TAE containing ethidium bromide.
PCR was performed with 28 cycles (25 cycles for GAPDH) of 30 seconds at 96° C., 30 seconds at 58° C. and 1 min at 72° C. RTPCR products were analyzed on 1.3% (w/v) agarose gels.

[2] = system: mitochondrial DNA (D-loop region); assay: Mitochondrial DNA analysis in the colon (D-loop PCR); format: in vivo, rat
Procedure: Mitochondrial DNA analysis in the colon: Tissue content of mitochondrial DNA was determined using specific primers for the D-loop region in the mitochondrial DNA. Mitochondrial colon tissue genomic DNA, was prepared using the Promega Wizard Genomic DNA Purification Kit (Promega Corp, Madison, Wis.). Mitochondrial DNA was amplified by the PCR reaction: Twenty cycles were used for the amplification with 25 ng total tissue DNA as template. Saturation in intensity of PCR products was observed after 24 cycles.
Primers: Left (sense) 5′-[…]-3′ (SEQ ID NO:1), corresponding to nucleotides 468 to 489 of rat mitochondrial D-loop region DNA (GenBank Accession No. X52757.1).
Right (antisense) 5′-[…]-3′ (SEQ ID NO:2) corresponding to nucleotides 988 to 967 of rat mitochondrial D-loop DNA (GenBank Accession No. X52757.1).
The expected PCR product was 520 bp. Actual PCR product was approximately 520 bp, measured on 1.25% agarose gel in TAE containing ethidium bromide.

Sp1 = Sp1 binding activity of nuclear extracts of treated macrophages (EMSA); format: cell-based, murine
Procedure: (§1) Cell culture: Murine J774.2 macrophages (kindly provided by Prof. Dov Zipori from the Weizmann Institute of Science) were grown in RPMI medium supplemented with 10% (w/v) fetal calf serum, penicillin (100 U/ml), streptomycin (100 μg/ml) and 1× glutamine at 37° C. in a humidified atmosphere consisting of 95% air and 5% CO2. Experiments were performed on cells at 60% confluence.
Nuclear extracts: Nuclear Extracts were prepared using a slight modification of the method of Dignam et al (23). Treated cells were washed with cold PBS, scraped and centrifuged. Hypotonic buffer (1 ml, 20 mM HEPES pH 7.0, 10 mM KCl, 1 mM mGCl2, 0.5 mM DTT, 0.1% Triton X-100, 20% glycerol, 2 mM PMSP, 1 mg/ml Aprotonin and Leupeptin) was added to the cell pellets, the pellets were disrupted by pipetting, and centrifuged 3000 RPM for 5 min. The pellets were re-suspended in 100 μl cold extraction buffer (20 mM HEPES pH 7.0, 10 mM KCl, 1 mM mGCl2, 0.5 mM DTT, 0.1% Triton X-100, 20% glycerol, 2 mM PMSF, 1 mg/ml Aprotonin and Leupeptin, 420 mM NaCl). The samples were rotated for 20 min at 4° C., centrifuged 15,000 RPM for 10 min, and supernatants collected. Protein content was measured using Bradford reagent. Samples were stored frozen at minus 70° C.
Electromobility shift assay (EMSA)—Gel shift assays were performed according to the gel shift assay protocol from Promega Corp. (San Luis Obispo, Calif.). A 22-mer double-stranded NF-κB consensus oligonucleotide 5′-[…]-3′ (SEQ ID NO:3), and Sp1 consensus oligonucleotide 5′-[…]-3(SEQ ID NO:4), were labeled with 32P. For each reaction, 2 μg of nuclear extract were incubated with 2 μl of 5× binding buffer for 5 min., 1 μl of the ^32P-labeled oligonucleotide was added at room temperature for 20 min., the samples were prepared by adding 1 μl of dye free loading buffer, and separated using 6% non-denaturing acrylamide gel electrophoresis. The gel was dried and exposed to a phosphoimaging screen for 18 hours and then visualized with a phosphoimager. For specificity, 1 μl of unlabeled consensus oligonucleotide was used to compete with the labeled probe.

J774.2 macrophages = assay: Mitochondrial membrane potential (CMTMRos, flow cytometry); format: cell-based, murine; details: 10 μM; LPS + INFγ activated (FIG. 16B)
Procedure: as §1
Evaluation of mitochondrial membrane potential (MMP) in cells—MMP was detected by flow cytometry (FACSort, Becton Dickenson and Co., San Jose, Calif. USA) using the membrane potential-sensitive fluorescent probe MitoTracker Orange (CMTMRos) (Molecular Probes, Oregon, USA). The following fluorescence setting was used: excitation at 488 nm and emission at 575 nm (FL2 channel) (24,25). Macrophage cells (1 million cells/ml) were stained with 0.1 μM CMTMRos for 30 min at 37° C. Accumulation of the dye in the mitochondria was evaluated by flow cytometer analysis as described hereinabove. Data were collected from 10,000 cells.

[3] = system: mitochondrial respiration in colon tissue; assay: Mitochondrial respiration (oxygen consumption) in colon tissue of supplemented rats; format: in vivo, rat
Procedure: Mitochondrial respiration activity in colon tissue: Mitochondrial respiration was measured by direct assessment of oxygen consumption of the tissue. Briefly, colons were removed, chilled on ice, and washed extensively with cold PBS. Colon tissue samples (5-10 mm in width, 100 mg) were incubated at ambient temperature in PBS supplemented with 5 mM glucose. Oxygen consumption was measured polarographically using a computerized Clark-type oxygen electrode. The addition of the Electron Transport Chain (complex 1) inhibitor rotenone was used to determine whether the majority of oxygen consumption measured in the colon samples was mitochondrial respiration-dependent.

## [Se] [selenium]
[1]
  average lifetime daily intake with biochemical and clinical symptoms: greater than 1000 microgram
GAPDH; LPS + INFγ activated (FIG. 11)
  GADPH expression, activated macrophages: No effect
GAPDH; resting J774.2 (FIGS. 9, 10)
  GADPH RNA levels: No effect
[2]; 24 h after TNBS, supplemented vs unsupplemented (FIG. 6)
  mitochondrial DNA in colon tissue, colitis-induced rats: intact mitochondrial DNA; also recorded: protects against the loss
[2]; TNBS−, Se suppl+ (FIG. 6)
  mitochondrial DNA in colon tissue, uninduced rats: No change
Sp1; 72 hours, then 6 hours LPS + INFγ, range 0.5-5 μM (FIG. 13A lower panel)
  lowest concentration with dramatic effect on Sp-1 binding, activated macrophages: 5 µM
Sp1; 72 hours, unactivated (FIG. 13A upper panel)
  lowest concentration with dramatic effect on Sp-1 binding, resting macrophages: 5 µM
Sp1; concentration-dependent (FIG. 13A)
  binding of Sp-1, activated macrophages: dramatically reduced
J774.2 macrophages
  mitochondrial membrane potential (MMP), activated macrophages: downregulates
[3]; 24 h after TNBS, supplemented vs unsupplemented (FIG. 5 C vs D), unsupplemented approximately 70% impairment
  hapten-induced impairment in oxygen consumption: prevented a significant proportion
[3]; healthy rats, supplemented vs unsupplemented (FIG. 5 B vs A)
  oxygen consumption in healthy colon tissue: little effect; also recorded: did not enhance
